In patent US11519859B2, “Rhodol-based thallium sensors for high-throughput screening of potassium channels” (priority 2018, dated 2022):
“And” between values parts separate entries of the source, which are not always exact repeats. Identical values can stand only once.

Columns and labels:
[1] = Compound storage as DMSO stock solutions; format: physicochemical; conditions: 10 mM stock solutions in DMSO at −20° C.
Experimental: Compounds 8a-m were dissolved in DMSO and stored as 10 mM stock solutions at −20° C. […] To prevent this, dry aliquots of 8a were prepared and dissolved in DMSO immediately before use.

[2] = system: HEK-293 cells co-expressing GIRK1 and GIRK2; conditions: dye loading 1 h, 1 mM Tl^+ stimulus; for on/off (Tl^+ flux assay), maximum fold increase in fluorescence after Tl^+ addition: 10 μM ML297, 2 mM Allura Red AC, n = 6
Experimental: HEK-293 cells co-expressing GIRK1 and GIRK2 were cultured to 80% confluence in a T75 flask (Techno Plastic Products, Trasadingen, CH) at 37° C. and 5% CO2 in medium consisting of Minimal Essential Medium (Cellgro, Manassas, Va.) containing 1× Glutagro (Cellgro, Manassas, Va.) and 10% (v/v) heat-inactivated fetal bovine serum (Life Technologies, Carlsbad, Calif.). The cells were dislodged by treatment with TrypLE (Gibco/Life Technologies, Carlsbad, Calif.), diluted in medium, and plated on clear bottomed, black-walled, amine coated 384 well plates (BD Biosciences, Billerica, Mass.) at a density ˜20,000 cells per well. The plated cells were incubated overnight at 37° C. and 5% CO2 and used for the assay the next day.
Dye loading solutions of Thallos were prepared by dissolving a 25 μg aliquot in 30 μL of 6.7% Pluoronic F-127 (w/v) in DMSO and diluting the resulting solution 1:1000 into assay buffer. Culture medium was removed and replaced with 20 μL of dye loading buffer and incubated in the dark at room temperature for 1 h.
Assay—Assays were conducted on a WaveFront Biosciences Panoptic 1 or 2 (WaveFront Biosciences, Franklin, Tenn.) as indicated. Dye loading solutions were removed and replaced with assay buffer immediately before imaging unless otherwise noted. 10 s following commencement of plate imaging, 20 μL of compound at 2.5× concentration in assay buffer was added and incubated for 120 s at which point 10 μL of Tl^+ at 5× concentration in stimulus buffer (125 mM NaHCO3, 1.8 mM CaSO4, 1 mM MgSO4, 5 mM glucose, 10 mM HEPES, pH 7.4, and T12SO4), and images taken for the following 120 s.
1 mM of T12SO4 (final concentration) was used for stimulus. Assay and stimulus buffers were supplemented with 2 mM of Allura Red AC. […] On/off ratios were calculated by dividing the fluorescence intensity after saturation following Tl^+ addition by the fluorescence intensity immediately after compound addition (n=6).

[3] = Determination of photochemical properties of saponified dyes; format: physicochemical; conditions: for λem (fluorescence emission maximum) / λmax (absorption maximum) / ε (molar absorptivity): after saponification, 150 mM KCl, 10 mM HEPES, 50 μM EDTA, pH = 7.22; for ε (molar absorptivity): at λmax
Experimental: Evaluation of the photochemical properties of the active Thallium sensing species was accomplished by saponifying 10 μL of each pro-dye stock solution by incubating with 90 μL of 0.1 M KOH for 20 min at 37° C. with the exception of 8b which was treated with 1% NH4OH for 1 h at 37° C. The saponified compounds were diluted into 150 mM KCl buffered with 10 mM HEPES, pH=7.22 with 50 μM of EDTA. All photochemical measurements were taken in this buffer. Absorbance and fluorescence emission spectra were recorded on a Molecular Devices Spectromax M5 using polystyrene cuvettes with path length=1 cm at 23° C. Molar absorptivities are reported for λmax. The emission wavelengths monitored for recording excitation spectra, the excitation wavelengths used for recording emission spectra, and the corresponding emission cutoff filters used are listed in Table 2 below, and representative excitation and emission spectra are shown in FIG. 7.
To determine the in vitro photochemical properties of the active Tl^+ sensing species, 8a-m were treated with base to remove the acetoxymethyl esters and aryl acetate and then diluted into 10 mM HEPES buffered 150 mM KCl with 50 μM EDTA at pH=7.22.

[4] = system: HEK-293 cells co-expressing GIRK1 and GIRK2; test: Fold increase in dye fluorescence in Tl+ flux assay with ML297 concentration series; format: cell-based
Description: ML297 concentration response curves—In general, all concentration-response data were collected on a WaveFront Biosciences Panoptic 2. Thallos treated cells were imaged using 482/35 nm excitation and 536/40 nm emission filters. 8c treated cells were imaged using 529/24 nm excitation and 565/24 nm emission filters (unless otherwise noted). FluxOR Red treated cells were imaged using 544/24 nm excitation and 593/40 nm emission filters (all filters purchased from Semrock, Rochester, N.Y.). FluxOR Red reagent was prepared according to the manufacturer's procedure. 5 μM of 8c was used for dye loading for all conditions.
FluxOR Red procedure with background suppressor. The manufacturer's procedure was followed with the exceptions that the dye loading solution was replaced with 20 μL of assay buffer, solutions of ML297 were prepared in assay buffer plus background suppressor, 20 μL of compound solution was added and 10 μL stimulus buffer (basal) was added according to the general assay protocol described above.
FluxOR Red procedure without background suppressor. The FluxOR Red manufacturer's procedure was followed except the background suppressor was replaced by H2O in all buffers.
Bicarbonate buffer with Allura Red AC. […]
The fluorescence intensity values of the first 6 time points for each well were averaged and the fluorescence intensity for all time points in the well was divided by this value to provide F/Fo for each time point. The average F/Fo of the vehicle control was then subtracted from each curve and the normalized, control subtracted fluorescence intensity value was sampled at a time point several seconds after Tl^+ addition. […] Fold increases in fluorescence reported in the main paper were calculated by averaging F/Fo between 100 and 110 s after Tl^+ addition. […]
The performance of 8c was evaluated in a Tl^+ flux assay to generate a concentration response curve (CRC) of the GIRK activator ML297. […] Normalized, control subtracted fluorescence intensity values were sampled along the curves following Tl^+ addition at each concentration and a CRC was fit using GraphPad Prism (FIG. 3B).

| Compound | stability on storage [1] | on/off (Tl^+ flux assay), maximum fold increase in fluorescence after Tl^+ addition [2] | λem (fluorescence emission maximum) [3] | λmax (absorption maximum) [3] | ε (molar absorptivity) [3] | fold increase in fluorescence at the highest ML297 concentration ([4]; FluxOR Red kit procedure with background suppressor, 10 μM ML297, F/Fo 100-110 s after Tl^+) | fold increase in fluorescence at the highest ML297 concentration ([4]; FluxOR Red kit procedure without background suppressor) | fold increase in fluorescence ([4]; bicarbonate stimulus buffer, 500 μM Tl^+, no-wash, 1 mM Allura Red AC) | fluorescence and response to Tl^+ in cells (in words) [2] | fluorescence of saponified dye (in words) ([3]; reason why spectra were not recorded) |
| --- | --- | --- | --- | --- | --- | --- | --- | --- | --- | --- |
| COc1cc(NC(=O)c2ccc3c(c2)C(=O)OC32c3ccc(N)cc3Oc3cc(OC(C)=O)ccc32)ccc1N(CC(=O)OCOC(C)=O)CC(=O)OCOC(C)=O (stereo not shown) [Compound 8a, bis(acetoxymethyl) 2,2′-((4-(3′-acetoxy-6′-amino-3-oxo-3H-spiro[isobenzofuran-1,9′-xanthen]-5-ylcarboxamido)-2-methoxyphenyl)azanediyl)diacetate] | appeared to undergo transacetylation | 3.02 ± 0.08 fold | 520 nm | 496 nm | 57000 M⁻¹ cm⁻¹ | – | – | – | – | – |
| COc1cc(NC(=O)c2ccc3c(c2)C(=O)OC32c3ccc(OC(C)=O)cc3Oc3cc(N(C)C)ccc32)ccc1N(CC(=O)OCOC(C)=O)CC(=O)OCOC(C)=O (stereo not shown) [Compound 8c, bis(acetoxymethyl) 2,2′-((4-(3′-acetoxy-6′-(dimethylamino)-3-oxo-3H-spiro[isobenzofuran-1,9′-xanthene]-5-carboxamido)-2-methoxyphenyl)azanediyl)diacetate] | – | 4.21 fold and 4.21 ± 0.04 fold | 551 nm | 521 nm | 56000 M⁻¹ cm⁻¹ | 3.09±0.004 fold | 2.87±0.004 fold | 3.40±0.009 fold | – | – |
| COc1cc(NC(=O)c2ccc3c(c2)C(=O)OC32c3ccc(Nc4ccccc4)cc3Oc3cc(OC(C)=O)ccc32)ccc1N(CC(=O)OCOC(C)=O)CC(=O)OCOC(C)=O (stereo not shown) [Compound 8i, bis(acetoxymethyl) 2,2′-((4-(3′-acetoxy-3-oxo-6′-(phenylamino)-3H-spiro[isobenzofuran-1,9′-xanthen]-5-ylcarboxamido)-2-methoxyphenyl)azanediyl)diacetate] | – | 1.07 ± 0.01 fold | – | 517 nm | 52000 M⁻¹ cm⁻¹ | – | – | – | minor increase in fluorescence | very weak fluorescence |
| COc1cc(NC(=O)c2ccc3c(c2)C(=O)OC32c3ccc(OC(C)=O)cc3Oc3cc(N4CCC4)ccc32)ccc1N(CC(=O)OCOC(C)=O)CC(=O)OCOC(C)=O (stereo not shown) [Compound 8j, bis(acetoxymethyl) 2,2′-((4-(3′-acetoxy-6′-(azetidin-1-yl)-3-oxo-3H-spiro[isobenzofuran-1,9′-xanthen]-5-ylcarboxamido)-2-methoxyphenyl)azanediyl)diacetate] | – | 3.92 ± 0.13 fold | 550 nm | 522 nm | 56000 M⁻¹ cm⁻¹ | – | – | – | – | – |
| COc1cc(NC(=O)c2ccc3c(c2)C(=O)OC32c3ccc(OC(C)=O)cc3Oc3cc(N4CC(F)(F)C4)ccc32)ccc1N(CC(=O)OCOC(C)=O)CC(=O)OCOC(C)=O (stereo not shown) [Compound 8k, bis(acetoxymethyl) 2,2′-((4-(3′-acetoxy-6′-(3,3-difluoroazetidin-1-yl)-3-oxo-3H-spiro[isobenzofuran-1,9′-xanthen]-5-ylcarboxamido)-2-methoxyphenyl)azanediyl)diacetate] | – | 2.02 ± 0.04 fold | 530 nm | 506 nm | 66000 M⁻¹ cm⁻¹ | – | – | – | almost half the response to Tl^+ | – |
| COc1cc(NC(=O)c2ccc3c(c2)C(=O)OC32c3ccc(OC(C)=O)cc3Oc3cc(N4CCCC4)ccc32)ccc1N(CC(=O)OCOC(C)=O)CC(=O)OCOC(C)=O (stereo not shown) [Compound 8l, bis(acetoxymethyl) 2,2′-((4-(3′-acetoxy-3-oxo-6′-(pyrrolidin-1-yl)-3H-spiro[isobenzofuran-1,9′-xanthen]-5-ylcarboxamido)-2-methoxyphenyl)azanediyl)diacetate] | – | 3.54 ± 0.07 fold | 553 nm | 525 nm | 39000 M⁻¹ cm⁻¹ | – | – | – | – | – |
| COc1cc(NC(=O)c2ccc3c(c2)C(=O)OC32c3ccc(OC(C)=O)cc3Oc3cc(N4CCCCC4)ccc32)ccc1N(CC(=O)OCOC(C)=O)CC(=O)OCOC(C)=O (stereo not shown) [Compound 8m, bis(acetoxymethyl) 2,2′-((4-(3′-acetoxy-3-oxo-6′-(piperidin-1-yl)-3H-spiro[isobenzofuran-1,9′-xanthen]-5-ylcarboxamido)-2-methoxyphenyl)azanediyl)diacetate] | – | 3.09 ± 0.04 fold | 557 nm | 526 nm | 48000 M⁻¹ cm⁻¹ | – | – | – | – | – |
